Measured values as given in patent US10894036B2, “Use of marizomib for the treatment of central nervous system (CNS) cancers” (Celgene International II Sàrl, priority 2016, dated 2021).
“And” between values parts separate entries of the source, which are not always exact repeats. Identical values can stand only once.

Legend:
[1] = Phase 1b MRZ + TMZ (+RT) in newly diagnosed G4 MG: adverse events, DLT; type: in vivo, human
Experimental: This is a Phase 1b, open-label, 3+3, dose-escalation followed by dose-expansion study in patients with newly diagnosed G4 MG who have not previously received any local or systemic therapy for their G4 MG. The study will examine the effect of the addition of MRZ to standard of care treatment utilizing two study arms: Concomitant Treatment in which MRZ will be combined with TMZ+RT and Adjuvant Treatment in which MRZ will be combined with TMZ. The study will be conducted in two Stages. In Stage 1 (Dose-Escalation): 3 to 6 evaluable patients per MRZ dose cohort will be enrolled in each study arm. […] A total of approximately 48 patients will be enrolled in Stages 1 and 2 combined. Patients may not be enrolled in more than 1 MRZ dose cohort per arm.
Concomitant Treatment consists of a 6 week (42 day) treatment period, followed by a 4 (−1) week break from treatments. All patients will receive intravenous (IV) MRZ infusion on Days 1, 8, 15, 29, and 36 as a 10 minute infusion. IV hydration will be given prior to the infusion. Focal RT will be administered once daily, 5 days/week, for 30 doses over 6 weeks to a total dose of 60 Gy, starting on Day 1. TMZ will be administered once daily, 7 days/week, for 6 weeks, starting on Day 1, at a dose of 75 mg/m^2. Patients who complete Concomitant Treatment may continue on to Adjuvant Treatment.
All patients will receive IV MRZ infusion on Days 1, 8, and 15 as a 10 minute infusion, in 28-day cycles. IV hydration will be given prior to the infusion. TMZ will be administered daily for 5 consecutive days, starting on Day 1 of Cycle 1 (C1D1), at a dose of 150 mg/m^2. If tolerated in Cycle 1, the TMZ dose will be increased on Day 1 of Cycle 2 (C2D1) to a dose of 200 mg/m^2.

[2] = tested on: malignant glioma stem-like cells; assay: HIF1-α and VEGF levels in malignant glioma stem-like cells; type: cell-based
20S Proteasome = assay: 20S proteasome activity (% inhibition) in rodent brain; type: in vivo, mouse; set-up: 20S Proteasome Activity (% Inhibition), Blood, Trough / 20S Proteasome Activity (% Inhibition), Blood, Peak (2 hr) / 20S Proteasome Activity (% Inhibition), Tumor, Trough / 20S Proteasome Activity (% Inhibition), Tumor, Peak (2 hr): concentration or dose not given beside the values; conditions: tumor-bearing mouse, IV; individual mice 1 and 2; listed as BTZ
[3] = patient 301-C202, action taken None

Cn1nnc2c(C(N)=O)ncn2c1=O [temozolomide, reference compound]
Abdominal pain, Grade ≥3 TEAE, drug related ([1]; human, in vivo): 0 (0.0%)
Confusional state, treatment-related TEAE, number of patients ([1]; human, in vivo): 0
Confusional state, treatment-related TEAE, percent of patients ([1]; human, in vivo): (0.0%)
Constipation, treatment-related TEAE, number of patients ([1]; human, in vivo): 3
Constipation, treatment-related TEAE, percent of patients ([1]; human, in vivo): (15.0%)
Decreased appetite, treatment-related TEAE, number of patients ([1]; human, in vivo): 4
Decreased appetite, treatment-related TEAE, percent of patients ([1]; human, in vivo): (20.0%)
Dehydration, Grade ≥3 TEAE, drug related ([1]; human, in vivo): 0 (0.0%)
Diarrhoea, treatment-related TEAE, number of patients ([1]; human, in vivo): 2
Diarrhoea, treatment-related TEAE, percent of patients ([1]; human, in vivo): (10.0%)
Dizziness, treatment-related TEAE, number of patients ([1]; human, in vivo): 2
Dizziness, treatment-related TEAE, percent of patients ([1]; human, in vivo): (10.0%)
Dose reduction, reason Adverse Event ([1]; human, in vivo): 1 (5.0%)
Fatigue, Grade ≥3 TEAE, drug related ([1]; human, in vivo): 1 (5.0%)
Fatigue, treatment-related TEAE, number of patients ([1]; human, in vivo): 11
Fatigue, treatment-related TEAE, percent of patients ([1]; human, in vivo): (55.0%)
Hallucination, Grade ≥3 TEAE, drug related ([1]; human, in vivo): 0 (0.0%)
Hallucination, treatment-related TEAE, number of patients ([1]; human, in vivo): 0
Hallucination, treatment-related TEAE, percent of patients ([1]; human, in vivo): (0.0%)
Headache, Grade ≥3 TEAE, drug related ([1]; human, in vivo): 0 (0.0%)
Headache, treatment-related TEAE, number of patients ([1]; human, in vivo): 0
Headache, treatment-related TEAE, percent of patients ([1]; human, in vivo): (0.0%)
Insomnia, Grade ≥3 TEAE, drug related ([1]; human, in vivo): 0 (0.0%)
Muscular weakness, treatment-related TEAE, number of patients ([1]; human, in vivo): 0
Muscular weakness, treatment-related TEAE, percent of patients ([1]; human, in vivo): (0.0%)
Musculoskeletal pain, Grade ≥3 TEAE, drug related ([1]; human, in vivo): 0 (0.0%)
Nausea, treatment-related TEAE, number of patients ([1]; human, in vivo): 9
Nausea, treatment-related TEAE, percent of patients ([1]; human, in vivo): (45.0%)
Number of Patients with drug Discontinued ([1]; human, in vivo): 0
Number of Patients with ≥1 Dose Reduction ([1]; human, in vivo): 1 (5.0%)
Ovarian cyst, Grade ≥3 TEAE, drug related ([1]; human, in vivo): 0 (0.0%)
Pelvic infection, Grade ≥3 TEAE, drug related ([1]; human, in vivo): 0 (0.0%)
Platelet count decreased, Grade ≥3 TEAE, drug related ([1]; human, in vivo): 1 (5.0%)
Platelet count decreased, treatment-related TEAE, number of patients ([1]; human, in vivo): 3
Platelet count decreased, treatment-related TEAE, percent of patients ([1]; human, in vivo): (15.0%)
Rash maculo-papular, treatment-related TEAE, number of patients ([1]; human, in vivo): 3
Rash maculo-papular, treatment-related TEAE, percent of patients ([1]; human, in vivo): (15.0%)
Vomiting, Grade ≥3 TEAE, drug related ([1]; human, in vivo): 0 (0.0%)
Vomiting, treatment-related TEAE, number of patients ([1]; human, in vivo): 7
Vomiting, treatment-related TEAE, percent of patients ([1]; human, in vivo): (35.0%)
SAE Dehydration, relationship to drug ([1]; in vivo): Not Suspected/
SAE Fatigue, relationship to drug ([1]; in vivo): Not Suspected/
SAE Hallucination, relationship to drug ([1]; in vivo): Not Suspected/
SAE Nausea, relationship to drug ([1]; in vivo): Not Suspected/
SAE Vomiting, relationship to drug ([1]; in vivo): Not Suspected/
SAE Nephrolithiasis, relationship to drug ([1]; patient 104-C302, action taken None): Not Suspected/
SAE Confusional state, relationship to drug ([1]; patient 301-A202, action taken None): Not Suspected/
SAE Ovarian cyst, relationship to drug ([1]; patient 301-C202, action taken Dose Delayed): Not Suspected/
SAE Convulsion, relationship to drug [1, 3]: Not Suspected/
SAE Pelvic infection, relationship to drug [1, 3]: Not Suspected/

CC(C)C[C@H](NC(=O)[C@H](Cc1ccccc1)NC(=O)c1cnccn1)B(O)O [bortezomib, reference compound]
HIF1-α and VEGF levels [2]: induces HIF1-α and VEGF levels
20S Proteasome Activity (% Inhibition), Blood, Peak (2 hr) (20S Proteasome): 81% and 83%
20S Proteasome Activity (% Inhibition), Blood, Trough (20S Proteasome): 18% and 13%
20S Proteasome Activity (% Inhibition), Tumor, Peak (2 hr) (20S Proteasome): 83% and 93%
20S Proteasome Activity (% Inhibition), Tumor, Trough (20S Proteasome): 64% and 41%
